Laboratory results from US8603527B2, “Pharmaceutical formulations of a substituted diaminopurine” (Signal Pharmaceuticals, LLC, priority 2010, dated 2013).

Experiments:
[1] = tested on: time-mated female CD [Crl:CD(SD)] rats; experiment: Oral developmental toxicity study in the rat; format: in vivo
Protocol: (§1) Compound I was administered orally to four groups of 25 time-mated female CD®[Crl:CD®(SD)] rats/group at dose levels of 0 (vehicle, 1.0% carboxymethylcellulose/0.25% TWEEN® 80), 25, 50, or 100 mg/kg/day from Gestation Days (GD) 6 to 17. In addition, four groups of five time-mated females/group served as toxicokinetic (TK) animals and received the vehicle or test article in the same manner as the main study groups.

[2] = Oral developmental toxicity study in the rat; format: in vivo; settings: female, CD [Crl:CD(SD)], rat, in vivo, oral; rats; read-out: NOAEL for maternal toxicity
Protocol: as §1

healthy subjects = experiment: Safety in the gender, age and food study in healthy subjects; format: in vivo, human; settings: 100 mg single oral dose, all age groups, each gender, fasting and fed
Protocol: Group 1 (Healthy Females) and Group 3 (Elderly Males and Females): Subjects were screened within 21 days of dosing and eligible subjects were admitted to the study center on Day −1 (i.e., at least 12 hours predose) for baseline assessments and confirmation of eligibility. A single oral dose of 100 mg Compound I was administered on Day 1 following an overnight fast of at least 8 hours. Subjects were discharged from the study center the morning of Day 3 upon completion of study procedures and returned to the study center for PK blood draws and safety assessments on Days 4, 5, and 6. The end-of-study (EOS) evaluation also occurred on Day 6. Subjects returned to the study center for a follow-up visit between 7 and 10 days from EOS. Serial blood samples were collected predose and up to 120 hours postdose for the determination of plasma Compound I concentrations. Safety was monitored throughout the study; safety evaluations included AE reporting, physical examinations, vital sign measurements, ECGs, and clinical laboratory safety tests. All AEs and concomitant medications were assessed and recorded throughout the study from the time the ICF was signed through follow-up.
Group 2 (Healthy Males): Subjects in Group 2 participated in this portion of the study to evaluate food effect using a randomized, open-label, single dose, 2-period (Period 1 and Period 2), 2-sequence, 2-way crossover design. […]

[3] = tested on: time-mated female New Zealand White Hra:(NZW)SPF rabbits; settings: rabbit, in vivo, 10 mg/kg/day
Excerpt: Additionally, four groups of five animals/group served as toxicokinetic (TK) animals and received the vehicle or test article in the same manner and dose levels as the main study groups. All time-mated females arrived at the laboratory on GD 0, the day evidence of mating was observed.

O[C@H]1CC[C@H](Nc2ncc3nc(Nc4c(F)cc(F)cc4F)n([C@H]4CCOC4)c3n2)CC1 [Compound I, 4-((9-((3S)-tetrahydro-3-furanyl)-8-((2,4,6-trifluorophenyl)amino)-9H-purin-2-yl)amino)-trans-cyclohexanol]
doses at which developmental effects were observed ([1]; female, CD [Crl:CD(SD)], rat, in vivo): > 25 mg/kg/day
teratogenicity ([1]; rat, in vivo): teratogenic
maternal toxicity ([1]; rat, in vivo, 25 mg/kg/day): No maternal toxicity
incidence of fetal malformations involving heart and aortic vessels, ribs, and/or vertebrae ([1]; rat, in vivo, 100 mg/kg/day): slight increase
post implantation loss index ([1]; rat, in vivo, 100 mg/kg/day): increased
fetal weights lower than controls ([1]; rat, in vivo, po, 25 mg/kg/day): about 6%
fetal body weights lower than controls ([1]; rat, in vivo, po, 50 mg/kg/day): about 11%
fetal body weights lower than controls ([1]; rat, in vivo, po, 100 mg/kg/day): ~27%
NOEL for developmental toxicity ([1]; rats): 25 mg/kg/day
lowest observed effect level (LOEL), developmental effects ([1]; rats): 25 mg/kg/day
NOAEL [2]: 25 mg/kg/day
tolerability (healthy subjects): well tolerated
maternal or developmental toxicity [3]: No maternal or developmental toxicity
